From patent publication US20100150894A1, “COMPOSITION FOR PREVENTION OF CANCER” (Kaneka Corporation, priority 2005, published 2010)

System: azoxymethane (AOM)-induced aberrant crypt foci (ACF) in colon
Test: Cancer prevention evaluation: AOM-induced colon aberrant crypt foci (ACF) in rats
Type: in vivo
Conditions: male F344 rats, 4 weeks; for number of formation of ACF compared with the control group: AOM 15 mg/kg s.c. once a week over two weeks
Experimental: 6-week-old male F344 rats were divided into 3 groups (2 treated groups and 1 control group; each group consisted of 9 rats) and a colon carcinogen azoxymethane (AOM) was injected subcutaneously at the dose of 15 mg/kg body weight once a week over two weeks. From the day before injection of AOM, to the treated groups, coenzyme Q10 (Kaneka Q10, Kaneka Corporation) was fed together with feed at the concentration of 200 or 500 ppm, respectively. 4 weeks later, aberrant crypt foci (ACF), which is a precancerous change in colon cancer, was analyzed. After the rats were sacrificed, the colons (from the cecum to rectum) were enucleated and fixed using a 10% neutral buffered formalin. After the fixation, the colons were washed with a phosphate buffered-saline and stained with a 0.2% methylene blue-containing phosphate buffered-saline. Then, the number and size of ACF were measured using a microscope. […] As observed above, it was made clear that coenzyme Q10 has an effect for inhibiting the initial stage of AOM-induced formation of colon ACF, which is a precancerous change of colon cancer.

For `COC1=C(OC)C(=O)C(C/C=C(\C)CC/C=C(\C)CC/C=C(\C)CC/C=C(\C)CC/C=C(\C)CC/C=C(\C)CC/C=C(\C)CC/C=C(\C)CC/C=C(\C)CCC=C(C)C)=C(C)C1=O` [coenzyme Q10], the “number of formation of ACF compared with the control group” value (coenzyme Q10 200 ppm in feed) was 76.6%, the “number of formation of ACF compared with the control group” value (coenzyme Q10 500 ppm in feed, p<0.01) was 68.0% and the “size difference in ACF between control group and treated groups” value (AOM-induced, coenzyme Q10 200 or 500 ppm in feed) was “not recognized”.
